Results reported in patent publication US20070185094A1, “Novel 3-substitued-1,4-benzodiazepines” (ASTON UNIVERSITY, priority 2003, published 2007).
Read-outs that look alike come from different tables or passages of the source.

Assays:
[1] = molecular target: T1, pancreatic and gallbladder CCK receptors (Homo sapiens, UniProt P32238); settings: cited from earlier work
T1 sequence (P32238 1-428): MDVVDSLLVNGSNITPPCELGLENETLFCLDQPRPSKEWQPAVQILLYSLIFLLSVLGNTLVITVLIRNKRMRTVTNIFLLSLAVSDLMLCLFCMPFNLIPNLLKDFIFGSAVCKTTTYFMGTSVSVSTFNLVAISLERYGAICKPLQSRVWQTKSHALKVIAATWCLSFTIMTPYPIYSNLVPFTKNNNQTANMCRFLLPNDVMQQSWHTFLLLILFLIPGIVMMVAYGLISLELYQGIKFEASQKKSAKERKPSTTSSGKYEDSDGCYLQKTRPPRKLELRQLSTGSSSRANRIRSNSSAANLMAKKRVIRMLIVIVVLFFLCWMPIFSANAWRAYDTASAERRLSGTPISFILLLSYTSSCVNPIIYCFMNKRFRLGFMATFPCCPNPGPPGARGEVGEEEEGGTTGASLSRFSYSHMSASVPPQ

MIA-PaCa2 cells = settings: cited from earlier work; for IC50: MIA-PaCa2, read-out: IC50 cytotoxicity
HT29-S-B6 cells = settings: 10 μM, at least 3 days, exponential phase; cited from earlier work
[2] = test system: advanced pancreatic cancer; settings: 18 patients; cited from earlier work
CCKB receptor [3] = molecular target: T2, CCKB receptor (Cavia porcellus, UniProt H0VZC5); assay: 125I-CCK-8 receptor binding assay, CCKB (guinea pig cerebral cortex); settings: IC50 CCKB
T2 sequence (H0VZC5 1-426): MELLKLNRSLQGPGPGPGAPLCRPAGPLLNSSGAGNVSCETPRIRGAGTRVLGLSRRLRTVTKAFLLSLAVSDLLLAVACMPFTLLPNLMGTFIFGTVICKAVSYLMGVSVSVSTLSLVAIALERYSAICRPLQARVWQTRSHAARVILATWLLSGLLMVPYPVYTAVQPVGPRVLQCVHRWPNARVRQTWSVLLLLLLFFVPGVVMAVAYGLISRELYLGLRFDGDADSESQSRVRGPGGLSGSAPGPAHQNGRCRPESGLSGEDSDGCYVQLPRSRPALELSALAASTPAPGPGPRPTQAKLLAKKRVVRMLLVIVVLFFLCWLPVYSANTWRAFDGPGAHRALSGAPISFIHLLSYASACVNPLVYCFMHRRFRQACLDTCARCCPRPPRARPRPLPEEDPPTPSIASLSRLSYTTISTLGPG
Experimental: CCKA and CCKB receptor binding assays were performed, by using guinea pig cerebral cortex (CCKB) or rat pancreas (CCKA). […]. J. Pharmacol., 269, 249-254]. Pancreatic membranes were prepared in a similar way but by Charpentier et al [(1988), Cyclic cholecystokinin analogues with high selectivity for central receptors., Proc Natl Acad Sci USA, 85, 1968-1972]. The […] CCK binding assay: Tissues were homogenised in ice cold sucrose (0.32 M, 25 ml) for 15 strokes at 500 rpm and centrifuged at 13000 rpm for 10 mins. The supernatant was re-centrifuged at 13000 rpm for 20 mins. The resulting pellet was re-dispersed to the required volume of buffer at 500 rpm and stored in aliquots at […].
(§1) The samples were incubated {with membranes (0.1 mg/ml)} in 20 mM Hepes, 1 mM EGTA, 5 mM MgCl2, 150 mm NaCl, 0.25 mg/ml bacitracin at pH 6.5 for 2 hrs at RT and then […] by centrifugation at 1100 rpm for 5 minutes. The membrane pellets were washed twice with water and the bound radioactivity was measured in a Packard Cobra Auto-gamma counter (B5005). All binding assays were carried out with L-363, 260 as an internal non-specific standard. Controls (no compound) were also added. All samples were made in duplicate and repeated twice. All compounds were initially screened for percentage inhibition at 20 μM.

CCKA receptor = molecular target: T3, CCKA receptor (Rattus norvegicus, UniProt P30551); assay: 125I-CCK-8 receptor binding assay, CCKA (rat pancreas); settings: for Ratio CCKB:CCKA: ratio of IC50 values; for CCKA binding activity in words: dimethylanilines with at least one meta group
T3 construct: Pancreatic membranes were prepared in a similar way; from tissue; host or cells: rat pancreas membranes
T3 sequence (P30551 1-444): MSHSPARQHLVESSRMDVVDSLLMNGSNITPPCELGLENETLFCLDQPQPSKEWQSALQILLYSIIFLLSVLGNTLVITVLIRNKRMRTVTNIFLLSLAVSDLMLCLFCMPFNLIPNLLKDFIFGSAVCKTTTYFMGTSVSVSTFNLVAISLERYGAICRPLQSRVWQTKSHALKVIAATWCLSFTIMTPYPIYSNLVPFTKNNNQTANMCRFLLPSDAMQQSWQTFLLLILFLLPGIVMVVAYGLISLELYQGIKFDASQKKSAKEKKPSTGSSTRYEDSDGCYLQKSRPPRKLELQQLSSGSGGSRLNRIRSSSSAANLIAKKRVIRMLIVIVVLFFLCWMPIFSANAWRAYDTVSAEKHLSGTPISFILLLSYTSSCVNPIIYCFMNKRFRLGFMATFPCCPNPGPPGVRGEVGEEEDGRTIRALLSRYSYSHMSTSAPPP
Experimental: CCKA and CCKB receptor binding assays were performed, by using guinea pig cerebral cortex (CCKB) or rat pancreas (CCKA). Male guinea pig brain tissues were prepared according to the modified method described by Saita et al [(1994), Characterization of YM022: its CCKB/gastrin receptor binding profile and antagonism to CCK-8-induced Ca2+ mobilization., Eur. J. Pharmacol., 269, 249-254]. Pancreatic membranes were prepared in a similar way but by Charpentier et al [(1988), Cyclic cholecystokinin analogues with high selectivity for central receptors., Proc Natl Acad Sci USA, 85, 1968-1972]. The […] CCK binding assay: Tissues were homogenised in ice cold sucrose (0.32 M, 25 ml) for 15 strokes at 500 rpm and centrifuged at 13000 rpm for 10 mins. The supernatant was re-centrifuged at 13000 rpm for 20 mins. The resulting pellet was re-dispersed to the required volume of buffer at 500 rpm and stored in aliquots at […].
as §1

CCKB receptor [4] = settings: cited from earlier work
[5] = mice, after intravenous injections; cited from earlier work
[6] = satiated rats; cited from earlier work
[7] = as the HCl salt; cited from earlier work
CCKB/gastrin receptor = settings: cited from earlier work

Compound | IC50 (CCKB receptor [3]; Table 3) | IC50 (CCKA receptor; Table 3) | Ratio CCKB:CCKA (CCKA receptor; Table 3) | further results
CC(C)C[C@@H]1N[C@H]2N(C1=O)c1ccccc1[C@@]2(O)C[C@@H]1NC(=O)c2ccccc2-n2c1nc1ccccc1c2=O [Asperlicin] |  |  |  | affinity relative to proglumide [1]: 300-400 times
N.N.[Cl][Pt][Cl] [DDP, cisplatin] |  |  |  | IC50 (MIA-PaCa2 cells; 1-h exposure): 35300 ± 3200 nM
CN1C(=O)[C@@H](NC(=O)c2cc3ccccc3[nH]2)N=C(c2ccccc2)c2ccccc21 [Devazepide] |  |  |  | factor of enhancement of sensitivity of MIA-PaCa2 cells to DDP (MIA-PaCa2 cells): 3.5; IC50 (MIA-PaCa2 cells; constant exposure schedule): 9500 ± 1400 nM; enhancement of baseline production of carcinoembryonic antigens (HT29-S-B6 cells): 5 fold; enhancement of baseline production of gastric M1 mucins (HT29-S-B6 cells): 2-3 fold; impact on tumor progression, pain, or nutrition [2]: failed to demonstrate any impact; patients able to tolerate treatment [2]: 17 of 18
COc1ccc(NC2N=C(c3ccccc3)c3cc(Cl)ccc3NC2=O)cc1 (centres unmarked) [Example 43, 7-chloro-3-(4-methoxyanilino)-5-phenyl-1,3-dihydro-2H-1,4-benzodiazepin-2-one] | > 10000 nM | ≥ 20000 nM |  | 
Cc1ccc(NC2N=C(c3ccccc3)c3cc(Cl)ccc3NC2=O)cc1 (centres unmarked) [Example 46] | 4600 nM | 290 nM | 16 | 
Cc1cccc(C)c1NC1N=C(c2ccccc2)c2cc(Cl)ccc2NC1=O (centres unmarked) [Example 47] | > 10000 nM | 10000 nM |  | 
Cc1ccc(NC2N=C(c3ccccc3)c3cc(Cl)ccc3NC2=O)cc1C (centres unmarked) [Example 48] | 920 nM | 15 nM | 61 | CCKA binding activity in words (CCKA receptor): equally active
Cc1cccc(NC2N=C(c3ccccc3)c3cc(Cl)ccc3NC2=O)c1C (centres unmarked) [Example 49] | 6000 nM | 18 nM | 333 | CCKA binding activity in words (CCKA receptor): equally active
Cc1cc(C)cc(NC2N=C(c3ccccc3)c3cc(Cl)ccc3NC2=O)c1 (centres unmarked) [Example 50] | 2900 nM | 9 nM | 322 | CCKA binding activity in words (CCKA receptor): equally active
O=C1Nc2ccc(Cl)cc2C(c2ccccc2)=NC1Nc1ccccc1 (centres unmarked) [Example 53] | 4100 nM | 240 nM | 17 | 
CN(c1ccccc1)C1N=C(c2ccccc2)c2cc(Cl)ccc2NC1=O (centres unmarked) [Example 54] | 150 nM |  | 11 | IC50 (CCKA receptor): 14 nM
Cc1cccc(N(C)C2N=C(c3ccccc3)c3cc(Cl)ccc3NC2=O)c1 (centres unmarked) [Example 55, 7-chloro-3-(3-dimethylanilino)-5-phenyl-1,3-dihydro-2H-1,4-benzodiazepin-2-one] |  |  | 9 | IC50 (CCKB receptor [3]): 70 nM; IC50 (CCKA receptor): 8 nM
CCN(c1cccc(C)c1)C1N=C(c2ccccc2)c2cc(Cl)ccc2NC1=O (centres unmarked) [Example 56] | 650 nM | 330 nM | 2 | 
Cc1cccc(NC(=O)N[C@@H]2N=C(c3ccccc3)c3ccccc3N(C)C2=O)c1 [L-365,260] |  |  |  | IC50 (CCKB receptor [4]): 8.5 nM; affinity for gastrin/CCKB receptors relative to pancreatic CCKA (CCKB receptor [4]): 80 fold; selectivity for CCKB receptors over CCKA (CCKB receptor [4]): 87 fold; brain uptake [5]: < 0.8 % dose/gram; potency relative to Devazepide in increasing feeding frequency [6]: 100 times
Cc1cccc(NC(=O)NC2N=C(C3CCCCC3)c3ccccc3N(C)C2=O)c1 [L-708,474] |  |  |  | IC50 (CCKB receptor [4]): 0.28 nM; selectivity for CCKB receptors over CCKA (CCKB receptor [4]): 6,500 fold
Cc1ccc(NC(=O)NC2N=C(C3CCCCC3)c3ccccc3N(C)C2=O)cc1Nc1nnn[nH]1 [L-737,425] |  |  |  | CCKA/CCKB ratio (CCKB receptor [4]): 37000
Cc1cccc(NC(=O)NC2N=C(N3CC4CCC(C4)C3)c3ccccc3N(C)C2=O)c1 [L-740,093] |  |  |  | water solubility compared to L-365,260 [7]: one hundred fold improved
Cc1cccc(NC(=O)NC2N=C(c3ccccc3)c3ccccc3N(CC(=O)c3ccccc3C)C2=O)c1 (centres unmarked) [YM022] |  |  |  | CCKA/CCKB ratio (CCKB/gastrin receptor): about 1300; IC50 (CCKB/gastrin receptor; read-out: IC50 CCKB/gastrin receptor affinity): 0.11 nM
